Experimental data reported in patent publication US20160037780A1, “BORON CONTAINING COMPOUNDS AND USES THEREOF” (EMPIRE TECHNOLOGY DEVELOPMENT LLC, priority 2013, published 2016).

Columns and labels:
Gloeophyllum trabeum = assay: Soil block test (AWPA E10-10), decay resistance of treated wood blocks; assay type: cell-based; conditions: 12 weeks at 28° C., mean of 6 blocks (SD)
Procedure: Soil Block Test. The soil block test (AWPA, 2010) is a relatively rapid laboratory method for assessing the decay resistance of wood-based materials under conditions that favor rapid fungal attack of wood. Soil block tests were conducted upon blocks treated with compounds and compositions described herein. Leachates from the blocks were collected prior to fungal exposure and analyzed.
Ponderosa pine (Pinus ponderosa L) sapwood blocks (19 mm cubes) were oven dried (60° C.) and weighed. The blocks were then randomly allocated, in groups of 12, to the various treatment groups. Treatment solutions containing actives (e.g., the compounds and compositions described herein) were supplied as 10% active ingredient concentrates. These solutions were then diluted with toluene to produce treatment solutions containing 0.1, 0.5, 1.0 and 3.0% active ingredient solutions. The blocks from a given group were placed in a container and covered with an excess of a given treatment solution. This container was placed in a desiccator. A vacuum was drawn over the vessel and then released. The blocks were removed from the treatment solution and blotted to remove excess solution before being weighed. The difference between the original dry weight and the wet weight was used to calculated net solution uptake. The blocks were stored wet for 3 days at 20-23° C. to allow any fixation reactions to proceed before being oven dried at 60° C. and weighed. The blocks were then conditioned to constant weight at 23° C. and 65% relative humidity prior to further testing.
(§1) Six blocks from each treatment group were subjected to a 14-day leaching procedure as described AWPA Standard E11-10 from the American Wood Preservers' Association's (AWPA) “Standard method of determining the leachability of wood preservatives” in the AWPA Book of Standards, Birmingham, Ala., 2010. The blocks were immersed in an excess of water, and subjected to a short vacuum. The water was then changed after 6, 24, and 48 hours of immersion and at 48 hour intervals over a total of 14 days. An aliquot of the leachate was retained at each time point for later analysis. The leached blocks were then reconditioned to constant weight at 23° C. and 65% relative humidity. Leachate collected at each time point was analyzed for boron using the azomethine H method as described in AWPA Standard A2-10 Method 16. All of the blocks were briefly soaked with water prior to being placed in plastic bags and sterilized by exposure to 2.5 mrad of ionizing radiation from a cobalt 60 source.
Decay chambers were prepared by half filling 454 ml French squares with moisture forest loam and placing a western hemlock feeder strip on the soil surface as described in AWPA Standard E10-10 “Standard method of testing wood preservatives by laboratory soil-block cultures.” The bottles were then loosely capped and autoclaved for 45 minutes at 121° C.
After cooling, the bottles were inoculated with 2 to 3 mm diameter malt agar disks cut from the actively growing edges of cultures of the test fungus, Gloeophyllum trabeum (Pers. ex Fr.) Murr. (Isolate: Madison 617). This fungus causes a brown rot of wood and tends to have some tolerance to boron compounds. The agar plugs were placed on the edges of the wood feeder strips, and the jars were loosely capped (to allow air exchange), and incubated until the feeder strip was thoroughly covered with fungal mycelium. The sterile test blocks were then placed on the surfaces of the feeder strips, the bottles were loosely capped and incubated at 28° C. for 12 weeks.
At the end of the incubation period, the blocks were removed, scraped clean of adhering mycelium and weighed to determine wet weight. The blocks were then oven dried (60° C.) and weighed. Differences between initial and final oven-dry weight were used as a measure of the decay resistance of each material.

[1] = 14-day leaching procedure (AWPA E11-10), boron in leachate by azomethine H method; assay type: physicochemical; conditions: 14-day water leaching of treated blocks
Procedure: as §1

Borate
Average Wood Weight Loss (Gloeophyllum trabeum; 0.1% B, Leaching + (first line of treatment)): 50.8 (4.2) %
Average Wood Weight Loss (Gloeophyllum trabeum; 0.1% B, second line of treatment, Leaching +): 53.8 (11.5) %
Average Wood Weight Loss (Gloeophyllum trabeum; 0.5% B, Leaching + (first line of treatment)): 46.5 (3.3) %
Average Wood Weight Loss (Gloeophyllum trabeum; 0.5% B, second line of treatment, Leaching +): 46.3 (2.4) %
Average Wood Weight Loss (Gloeophyllum trabeum; 1.0% B, Leaching + (first line of treatment)): 53.6 (4.3) %
Average Wood Weight Loss (Gloeophyllum trabeum; 1.0% B, second line of treatment, Leaching +): 48.3 (8.7) %
Average Wood Weight Loss (Gloeophyllum trabeum; 3.0% B, Leaching + (first line of treatment)): 51.8 (8.3) %
Average Wood Weight Loss (Gloeophyllum trabeum; 3.0% B, second line of treatment, Leaching printed + (probably non-leached)): 27.3 (6.9) %
Boron concentrations in leachates (rank among formulations) [1]: highest
